Source: patent publication US20110287470A1, “CELL CULTURE METHOD TO FORM AGGREGATES” (priority 2008, published 2011)

System: cardiac tissue generated from cardiomyocytes derived from human ESCs
Assay: Multi-electrode array electrophysiological recordings of CardioSpot cardiac tissue
Assay type: cell-based
Conditions: for repolarising potential (delay measured from the first signal): control 140 ms, FIG. 8
Experimental: CardioSpot made using primary or stem cell derived cardiomyocytes are placed onto the porous MEAs. Electrophysiological recordings were performed either through the supporting membrane or from under the membrane in order to get a direct contact of the tissues with recording electrodes. Control recording were performed using the culture medium as well a the solution used for reference molecules ([…], and lidocaine) Pharmacological experiments were carried out using reference compounds to characterise and validate the cardiac tissue generated from cardiomyocytes derived from human ESCs and engineered using the method of invention.

| SMILES | repolarising potential (delay measured from the first signal) (30 nM E4031, after 5 min) | repolarising potential (delay measured from the first signal) (30 nM E4031, after 15 min) | decrease of the amplitude of the electrophysiological signals (30 uM lidocaine, after 6 minutes, FIG. 7) | amplitude of the first signal (predominantly dependent on sodium channel opening) (lidocaine, within few minutes, FIG. 7) |
| --- | --- | --- | --- | --- |
| Cc1cccc(CCN2CCC(C(=O)c3ccc(NS(C)(=O)=O)cc3)CC2)n1 [E4031] | 155 ms | 173 ms | – | – |
| CCN(CC)CC(=O)Nc1c(C)cccc1C [lidocaine] | – | – | 50% | dramatic decrease of the amplitude |
